For 15 molecules, TGI results are on record in PubChem BioAssay (NCI).

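Protocol summary: plate cells (96-well), add compound at 5 concentrations, incubate 48 h, interpolate endpoints linearly. TGI is the concentration that stops growth completely.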

The test system of one test is A498 renal. As to the kind of experiment: NCI anticancer screen, dose series, 48 h.
For `O=C(/N=C/c1c(O)c2ccccc2oc1=O)Oc1ccccc1`, the TGI is 46.2 µM.

In a further test the test system is UO-31 renal. As to the kind of experiment: NCI anticancer screen, dose series, 48 h.
In turn, `O=C1c2cccc3cccc(c23)C(=O)N1CCCNCCCNCCCCNCCCNCCCN1C(=O)c2cccc3cccc(c23)C1=O` returned a TGI of 30.4 µM.

Molecule `C#CC(C)(C)OC(=O)C(=[N+]=[N-])C(C)=O` returned a TGI greater than 10 µM.

As for `Nc1nc(NCC2(CO)CC2)cc(=O)[nH]1`, the TGI was greater than 100 µM.

The molecule `CCOC(=O)/C=C/[C@H](O[Si](CC)(CC)CC)C(C)(C)C` registered a TGI greater than 100 µM.

`Cc1ccc(-c2n[nH]c(=O)n2/N=C\c2ccc([N+](=O)[O-])cc2)cc1`: the TGI is greater than 100 µM.

In turn, `CC(CO)CCNc1ncnc2c1ncn2CCC(=O)OC(C)(C)C` (configuration not stated) gave a TGI greater than 100 µM.

Molecule `Nc1nc(Cl)c(N)c(NCC2(CO)CCCC2)n1` registered a TGI greater than 100 µM.

The molecule `COc1ccc2c(c1)nc1n2C(c2c(Cl)cccc2Cl)SC1` (configuration not stated) returned a TGI greater than 100 µM.

For the molecule `CCOC(=O)c1c(NC(=O)OC)c(C#N)c2n1CCCCC2`, the TGI is greater than 100 µM.

The molecule `CN(C)c1ccc(/C=N\NC(=O)Nc2cccc3ccccc23)cc1` registered a TGI of 51.6 µM.

As for `S=C1SSC2N=CC=CC12` (configuration not stated), the TGI was greater than 100 µM.

In turn, `CNC(=S)N=Nc1c(O)n(CN2CCOCC2)c2ccc([N+](=O)[O-])cc12` showed a TGI of 14.2 µM.

On to `[N-]=[N+]=Nc1cc(=O)[nH]nc1-c1ccccc1`, for which the TGI is greater than 100 µM.

In the case of `O=C(NCCCl)N(O)C(=O)Nc1ccccc1`, the TGI is greater than 100 µM.

Molecule `O=C(/N=C/c1c(O)c2ccccc2oc1=O)Oc1ccccc1` came in with a TGI of 63.6 µM.

For another test, the system named is RPMI-8226 leukemia. Put plainly: NCI anticancer screen, dose series, 48 h.
The molecule `O=C1c2cccc3cccc(c23)C(=O)N1CCCNCCCNCCCCNCCCNCCCN1C(=O)c2cccc3cccc(c23)C1=O` yielded a TGI greater than 34 µM.

The molecule `C#CC(C)(C)OC(=O)C(=[N+]=[N-])C(C)=O` yielded a TGI greater than 10 µM.

In turn, `Nc1nc(NCC2(CO)CC2)cc(=O)[nH]1` returned a TGI greater than 100 µM.

Regarding `CCOC(=O)/C=C/[C@H](O[Si](CC)(CC)CC)C(C)(C)C`, the TGI was determined as 41.3 µM.

`Cc1ccc(-c2n[nH]c(=O)n2/N=C\c2ccc([N+](=O)[O-])cc2)cc1` displayed a TGI greater than 100 µM.

The molecule `CC(CO)CCNc1ncnc2c1ncn2CCC(=O)OC(C)(C)C` (configuration not stated) came in with a TGI greater than 100 µM.

`Nc1nc(Cl)c(N)c(NCC2(CO)CCCC2)n1`: the TGI is greater than 100 µM.

In the case of `COc1ccc2c(c1)nc1n2C(c2c(Cl)cccc2Cl)SC1` (configuration not stated), the TGI was greater than 100 µM.

Molecule `CCOC(=O)c1c(NC(=O)OC)c(C#N)c2n1CCCCC2` returned a TGI greater than 100 µM.

Molecule `CN(C)c1ccc(/C=N\NC(=O)Nc2cccc3ccccc23)cc1` gave a TGI greater than 100 µM.

Molecule `S=C1SSC2N=CC=CC12` (configuration not stated) returned a TGI greater than 100 µM.

With `CNC(=S)N=Nc1c(O)n(CN2CCOCC2)c2ccc([N+](=O)[O-])cc12`, the TGI worked out at 50.5 µM.

Take `[N-]=[N+]=Nc1cc(=O)[nH]nc1-c1ccccc1`: the TGI is greater than 100 µM.

In the case of `O=C(NCCCl)N(O)C(=O)Nc1ccccc1`, the TGI is greater than 100 µM.

On to `O=C(/N=C/c1c(O)c2ccccc2oc1=O)Oc1ccccc1`, for which the TGI is greater than 100 µM.

Another test deals with SR leukemia. Put plainly: NCI anticancer screen, dose series, 48 h.
`O=C1c2cccc3cccc(c23)C(=O)N1CCCNCCCNCCCCNCCCNCCCN1C(=O)c2cccc3cccc(c23)C1=O` showed a TGI greater than 31.8 µM.

In the case of `C#CC(C)(C)OC(=O)C(=[N+]=[N-])C(C)=O`, the TGI was greater than 10 µM.

In the case of `Nc1nc(NCC2(CO)CC2)cc(=O)[nH]1`, the TGI was greater than 100 µM.

Take `CCOC(=O)/C=C/[C@H](O[Si](CC)(CC)CC)C(C)(C)C`: the TGI came to 50.7 µM.

The molecule `Cc1ccc(-c2n[nH]c(=O)n2/N=C\c2ccc([N+](=O)[O-])cc2)cc1` returned a TGI greater than 100 µM.

Consider `CC(CO)CCNc1ncnc2c1ncn2CCC(=O)OC(C)(C)C` (configuration not stated), for which the TGI is greater than 100 µM.

`Nc1nc(Cl)c(N)c(NCC2(CO)CCCC2)n1` gave a TGI greater than 100 µM.

Turning to `COc1ccc2c(c1)nc1n2C(c2c(Cl)cccc2Cl)SC1` (configuration not stated), the TGI is greater than 100 µM.

`CCOC(=O)c1c(NC(=O)OC)c(C#N)c2n1CCCCC2` came in with a TGI greater than 100 µM.

`CN(C)c1ccc(/C=N\NC(=O)Nc2cccc3ccccc23)cc1` showed a TGI greater than 100 µM.

For the molecule `S=C1SSC2N=CC=CC12` (configuration not stated), the TGI is greater than 100 µM.

The molecule `CNC(=S)N=Nc1c(O)n(CN2CCOCC2)c2ccc([N+](=O)[O-])cc12` yielded a TGI greater than 100 µM.

Turning to `[N-]=[N+]=Nc1cc(=O)[nH]nc1-c1ccccc1`, the TGI was greater than 100 µM.

With `O=C(NCCCl)N(O)C(=O)Nc1ccccc1`, the TGI is greater than 100 µM.

Turning to `O=C(/N=C/c1c(O)c2ccccc2oc1=O)Oc1ccccc1`, the TGI was greater than 100 µM.

A further test relates to SK-MEL-28 melanoma. As to the kind of experiment: NCI anticancer screen, dose series, 48 h.
`O=C1c2cccc3cccc(c23)C(=O)N1CCCNCCCNCCCCNCCCNCCCN1C(=O)c2cccc3cccc(c23)C1=O` had a TGI of 9 µM.

Consider `C#CC(C)(C)OC(=O)C(=[N+]=[N-])C(C)=O`, for which the TGI was greater than 10 µM.

For `Nc1nc(NCC2(CO)CC2)cc(=O)[nH]1`, the TGI is greater than 100 µM.

Molecule `Cc1ccc(-c2n[nH]c(=O)n2/N=C\c2ccc([N+](=O)[O-])cc2)cc1` registered a TGI greater than 100 µM.

With `CC(CO)CCNc1ncnc2c1ncn2CCC(=O)OC(C)(C)C` (configuration not stated), the TGI was greater than 100 µM.

With `Nc1nc(Cl)c(N)c(NCC2(CO)CCCC2)n1`, the TGI is greater than 100 µM.

`COc1ccc2c(c1)nc1n2C(c2c(Cl)cccc2Cl)SC1` (configuration not stated) yielded a TGI greater than 100 µM.

In turn, `CCOC(=O)c1c(NC(=O)OC)c(C#N)c2n1CCCCC2` gave a TGI greater than 100 µM.

`CN(C)c1ccc(/C=N\NC(=O)Nc2cccc3ccccc23)cc1` registered a TGI greater than 100 µM.

Consider `S=C1SSC2N=CC=CC12` (configuration not stated), for which the TGI is greater than 100 µM.

As to `CNC(=S)N=Nc1c(O)n(CN2CCOCC2)c2ccc([N+](=O)[O-])cc12`, the TGI worked out at 54.8 µM.

`[N-]=[N+]=Nc1cc(=O)[nH]nc1-c1ccccc1` gave a TGI greater than 100 µM.

A further test has as its system HOP-62 NSCLC. Put plainly: NCI anticancer screen, dose series, 48 h.
`O=C1c2cccc3cccc(c23)C(=O)N1CCCNCCCNCCCCNCCCNCCCN1C(=O)c2cccc3cccc(c23)C1=O` showed a TGI of 27.3 µM.

`C#CC(C)(C)OC(=O)C(=[N+]=[N-])C(C)=O` yielded a TGI greater than 10 µM.

Consider `Nc1nc(NCC2(CO)CC2)cc(=O)[nH]1`, for which the TGI was greater than 100 µM.

`CCOC(=O)/C=C/[C@H](O[Si](CC)(CC)CC)C(C)(C)C`: the TGI is greater than 100 µM.

With `Cc1ccc(-c2n[nH]c(=O)n2/N=C\c2ccc([N+](=O)[O-])cc2)cc1`, the TGI is greater than 100 µM.

Consider `CC(CO)CCNc1ncnc2c1ncn2CCC(=O)OC(C)(C)C` (configuration not stated), for which the TGI was greater than 100 µM.

`Nc1nc(Cl)c(N)c(NCC2(CO)CCCC2)n1` came in with a TGI greater than 100 µM.

In turn, `COc1ccc2c(c1)nc1n2C(c2c(Cl)cccc2Cl)SC1` (configuration not stated) registered a TGI greater than 71 µM.

Regarding `CCOC(=O)c1c(NC(=O)OC)c(C#N)c2n1CCCCC2`, the TGI was greater than 100 µM.

The molecule `CN(C)c1ccc(/C=N\NC(=O)Nc2cccc3ccccc23)cc1` showed a TGI of 33.1 µM.

`CNC(=S)N=Nc1c(O)n(CN2CCOCC2)c2ccc([N+](=O)[O-])cc12` gave a TGI of 28.2 µM.

Molecule `[N-]=[N+]=Nc1cc(=O)[nH]nc1-c1ccccc1` returned a TGI greater than 100 µM.

`O=C(NCCCl)N(O)C(=O)Nc1ccccc1`: the TGI is greater than 100 µM.

`O=C(/N=C/c1c(O)c2ccccc2oc1=O)Oc1ccccc1`: the TGI came out at 43.6 µM.
